# How the values were obtained:
# Format in all cases: physicochemical
# [1] = Storage stability at 70° C. for one week (discolouration, decomposition); conditions: for stability, discolouration and decomposition on storage: 70° C., one week, identical conditions for both salts
# [2] = Storage stability under atmospheric conditions at 60-70° C. (by-products, HPLC purity)
# Text: The compounds according to the invention and their hydrates can be used for the treatment and prevention of all disorders, which can be treated or prevented by using PPI. In particular, the compounds according to the invention and their hydrates can be used for treating gastric disorders. In this context particular mention should be made of the relatively high stability of compounds according to the invention and their hydrates. […] This relatively high storage stability makes the compounds according to the invention and their hydrates particularly suitable for use in medicaments.
# [3] = Dissolution compared with racemic pantoprazole magnesium dihydrate
SMILES,"stability, discolouration and decomposition on storage [1]",stability properties / stable storage form (general statement) ([1]; compared to the sodium salt of (−)-pantoprazole),purity (according to HPLC) before storage ([2]; start value) [%],purity (according to HPLC) after storage ([2]; storage under atmospheric conditions at 60-70° C.),dissolution [3],"sum of by-products on storage ([2]; storage under atmospheric conditions, 60-70° C.)"
"COc1ccnc(C[S+]([O-])c2nc3cc(OC(F)F)ccc3[n-]2)c1OC.[Na+] (single isomer, unassigned; (-)) [(−)-pantoprazole sodium]","changes to brown, with formation of considerable amounts of decomposition products",does not form a stable storage form,99.5,96-97%,–,–
"COc1ccnc(C[S+]([O-])c2nc3cc(OC(F)F)ccc3[n-]2)c1OC.O.[Mg+2].[OH-] (stereo not drawn) [Example 2, Magnesium (−)-{[5-(difluoromethoxy)]-2-[(3,4-dimethoxy-2-pyridinyl)methylsulphinyl]-1H-benzimidazolide}hydroxy monohydrate]",completely stable for one week and shows virtually no discolouration or decomposition,–,–,–,faster dissolution than the racemic pantoprazole magnesium dihydrate,remains virtually constant
